According to PubChem BioAssay AID236 (DTP/NCI, 2004):
Where “and” joins values, the source holds several entries; their conditions need not be identical. Identical values can stand only once. Inconclusive results and toxic doses are left out.

System: AK4 lymphoid leukemia ip, C3AKF1 mice, survival
Test: NCI In Vivo Anticancer Drug Screen. Data for tumor model AK4 Lymphoid Leukemia (intraperitoneal) in C3AKF1 (CHKRF1) mice
Details: endpoint: median survival time, higher = longer survival
Procedure: The antitumor activity of compounds was measured in mice bearing transplantable tumors. Survival or tumor size were measured and the results are expressed as the measurement made in the treated group (T) divided by the measurement made in the vehicle treated control group (C). The tumor model used in this assay is AK4 Lymphoid Leukemia (intraperitoneal) in C3AKF1 (CHKRF1) mice

[1] = dose: 25.0 mg/kg/injection, schedule: Q01DX010 (ip), vehicle: saline
[2] = dose: 100.0 mg/kg/injection, schedule: Q01DX010 (ip), vehicle: saline
[3] = dose: 60.0 mg/kg/injection, schedule: Q01DX010 (ip), vehicle: saline
[4] = dose: 62.5 mg/kg/injection, schedule: Q01DX010 (ip), vehicle: saline
[5] = dose: 125.0 mg/kg/injection, schedule: Q01DX010 (ip), vehicle: saline
[6] = dose: 250.0 mg/kg/injection, schedule: Q01DX010 (ip), vehicle: saline
[7] = dose: 500.0 mg/kg/injection, schedule: Q01DX010 (ip), vehicle: saline
[8] = dose: 3.13 mg/kg/injection, schedule: Q01DX010 (ip), vehicle: saline
[9] = dose: 6.25 mg/kg/injection, schedule: Q01DX010 (ip), vehicle: saline
[10] = dose: 12.5 mg/kg/injection, schedule: Q01DX010 (ip), vehicle: saline
[11] = dose: 200.0 mg/kg/injection, schedule: Q01DX010 (ip), vehicle: saline
[12] = dose: 15.6 mg/kg/injection, schedule: Q01DX010 (ip), vehicle: saline
[13] = dose: 31.3 mg/kg/injection, schedule: Q01DX010 (ip), vehicle: saline
[14] = dose: 1000.0 mg/kg/injection, schedule: Q01DX010 (ip), vehicle: saline
[15] = dose: 0.5 mg/kg/injection, schedule: Q01DX010 (ip), vehicle: saline
[16] = dose: 1.0 mg/kg/injection, schedule: Q01DX010 (ip), vehicle: saline
[17] = dose: 10.0 mg/kg/injection, schedule: Q01DX010 (ip), vehicle: saline
[18] = dose: 20.0 mg/kg/injection, schedule: Q01DX010 (ip), vehicle: saline
[19] = dose: 40.0 mg/kg/injection, schedule: Q01DX010 (ip), vehicle: saline
[20] = dose: 15.0 mg/kg/injection, schedule: Q01DX010 (ip), vehicle: saline
[21] = dose: 30.0 mg/kg/injection, schedule: Q01DX010 (ip), vehicle: saline
[22] = dose: 50.0 mg/kg/injection, schedule: Q01DX010 (ip), vehicle: saline
[23] = dose: 2.0 mg/kg/injection, schedule: Q01DX010 (ip), vehicle: saline
[24] = dose: 4.0 mg/kg/injection, schedule: Q01DX010 (ip), vehicle: saline
[25] = dose: 8.0 mg/kg/injection, schedule: Q01DX010 (ip), vehicle: saline

CCN(CC)CCNc1ccc(C)c2sc3ccccc3c(=O)c12
T/C [1]: 122 % of control | T/C [2]: 105 % of control

CN(Cc1cnc2nc(N)nc(N)c2n1)c1ccc(C(=O)N[C@@H](CCC(=O)O)C(=O)O)cc1
T/C (dose: 0.19 mg/kg/injection, schedule: Q01DX Z (ip), vehicle: saline): 120 % of control | T/C (dose: 0.38 mg/kg/injection, schedule: Q01DX010 (ip), vehicle: other): 155 % of control and 181 % of control | T/C (dose: 0.38 mg/kg/injection, schedule: Q01DX Z (ip), vehicle: saline): 180 % of control | T/C (dose: 0.75 mg/kg/injection, schedule: Q01DX010 (ip), vehicle: other): 160 % of control and 181 % of control | T/C (dose: 0.75 mg/kg/injection, schedule: Q01DX Z (ip), vehicle: saline): 253 % of control and 361 % of control | T/C (dose: 1.5 mg/kg/injection, schedule: Q01DX010 (ip), vehicle: other): 185 % of control and 256 % of control | T/C (dose: 3.0 mg/kg/injection, schedule: Q01DX010 (ip), vehicle: other): 175 % of control

CN(N=O)C(=O)NC(C=O)C(O)C(O)C(O)CO (stereo not given)
T/C [3]: 150 % of control | T/C (dose: 90.0 mg/kg/injection, schedule: Q01DX010 (ip), vehicle: saline): 150 % of control

c1ccc(CCSc2ncnc3nc[nH]c23)cc1
T/C [4]: 100 % of control | T/C [5]: 100 % of control | T/C [6]: 100 % of control | T/C [7]: 100 % of control

CS(=O)(=O)OCCCl
T/C (dose: 18.8 mg/kg/injection, schedule: Q01DX010 (ip), vehicle: saline): 100 % of control | T/C (dose: 37.5 mg/kg/injection, schedule: Q01DX010 (ip), vehicle: saline): 100 % of control | T/C (dose: 75.0 mg/kg/injection, schedule: Q01DX010 (ip), vehicle: saline): 100 % of control

Cc1cc2nc3c(=O)[nH]c(=O)nc-3n(CC(O)C(O)C(O)C(O)CO)c2cc1C (stereo not given)
T/C [8]: 105 % of control | T/C [9]: 111 % of control | T/C [10]: 105 % of control | T/C [1]: 100 % of control and 105 % of control | T/C [11]: 88 % of control

COc1cc(-c2ccc(Nc3ccccc3C(=O)O)c(OC)c2)ccc1Nc1ccccc1C(=O)O
T/C [10]: 112 % of control | T/C [1]: 112 % of control and 122 % of control | T/C [2]: 162 % of control

C[C@H]1C(=O)O[C@@H]2CCN3CC=C(COC(=O)[C@](C)(O)[C@@]1(C)O)[C@H]23
T/C [8]: 111 % of control | T/C [9]: 100 % of control | T/C [10]: 117 % of control

CN(C)/N=N/c1nc[nH]c1C(N)=O
T/C [2]: 155 % of control and 166 % of control | T/C [11]: 177 % of control and 205 % of control

COc1ccc2c(c1OC)C(=O)O[C@@H]2[C@H]1c2c(cc3c(c2OC)OCO3)CCN1C
T/C (dose: 0.9 mg/kg/injection, schedule: Q01DX010 (ip), vehicle: saline): 100 % of control | T/C (dose: 1.9 mg/kg/injection, schedule: Q01DX010 (ip), vehicle: saline): 87 % of control | T/C (dose: 3.9 mg/kg/injection, schedule: Q01DX010 (ip), vehicle: saline): 87 % of control | T/C (dose: 7.8 mg/kg/injection, schedule: Q01DX010 (ip), vehicle: saline): 111 % of control and 87 % of control | T/C [12]: 100 % of control | T/C [13]: 100 % of control | T/C [4]: 94 % of control | T/C [5]: 88 % of control | T/C [6]: 88 % of control

CCN(CCNc1ccc(C)c2sc3cc(Cl)ccc3c(=O)c12)CC(C)O (stereo not given)
T/C [13]: 94 % of control | T/C [4]: 88 % of control and 94 % of control | T/C [5]: 94 % of control | T/C [6]: 88 % of control

Cc1n[nH]c(=O)[nH]c1=O
T/C [5]: 87 % of control | T/C [6]: 100 % of control | T/C [7]: 87 % of control | T/C [14]: 87 % of control

C1CN1c1nc(N2CC2)nc(N2CC2)n1
T/C (dose: 0.25 mg/kg/injection, schedule: Q01DX010 (ip), vehicle: saline): 116 % of control | T/C [15]: 150 % of control | T/C [16]: 111 % of control

CN(N=O)C(N)=O
T/C [17]: 162 % of control | T/C [18]: 225 % of control | T/C [19]: 112 % of control

C[N+](C)(C)c1ncnc2nc[nH]c12
T/C [20]: 100 % of control | T/C [21]: 116 % of control | T/C [3]: 111 % of control | T/C (dose: 120.0 mg/kg/injection, schedule: Q01DX010 (ip), vehicle: saline): 88 % of control

Nc1c(Br)cc2c(c1Br)Cc1cc([N+](=O)[O-])ccc1-2
T/C [4]: 100 % of control and 105 % of control | T/C [5]: 94 % of control and 100 % of control | T/C [6]: 94 % of control and 105 % of control | T/C [7]: 94 % of control

CSCS(=O)C[C@H](CO)NC(=O)/C=C/c1c(C)[nH]c(=O)[nH]c1=O (stereo not given in full)
T/C (dose: 125.0 micrograms/kg/injection, schedule: Q01DX010 (ip), vehicle: saline): 93 % of control | T/C (dose: 250.0 micrograms/kg/injection, schedule: Q01DX010 (ip), vehicle: saline): 87 % of control | T/C (dose: 500.0 micrograms/kg/injection, schedule: Q01DX010 (ip), vehicle: saline): 87 % of control

O=C(O)CCCc1ccc(N(CCCl)CCCl)cc1
T/C [8]: 100 % of control | T/C [9]: 113 % of control and 120 % of control | T/C [10]: 95 % of control

N=C(N)c1ccc(Nc2ccc(C(=N)N)cc2)cc1
T/C (dose: 1.5 mg/kg/injection, schedule: Q01DX010 (ip), vehicle: saline): 88 % of control | T/C (dose: 3.0 mg/kg/injection, schedule: Q01DX010 (ip), vehicle: saline): 88 % of control and 122 % of control | T/C (dose: 6.0 mg/kg/injection, schedule: Q01DX010 (ip), vehicle: saline): 94 % of control and 105 % of control | T/C (dose: 12.0 mg/kg/injection, schedule: Q01DX010 (ip), vehicle: saline): 94 % of control and 111 % of control

Oc1cc(CN(CCCl)CCCl)c(O)cc1CN(CCCl)CCCl
T/C [17]: 100 % of control

CS(=O)(=O)OCC(O)C(O)C(O)C(O)COS(C)(=O)=O (stereo not given)
T/C [10]: 112 % of control | T/C [1]: 100 % of control and 105 % of control | T/C [22]: 94 % of control | T/C [2]: 87 % of control and 100 % of control | T/C [11]: 100 % of control

C=CC(CN1CC1)OC(C)=O (stereo not given)
T/C [23]: 90 % of control and 100 % of control | T/C [24]: 95 % of control and 111 % of control | T/C [25]: 88 % of control and 120 % of control | T/C (dose: 16.0 mg/kg/injection, schedule: Q01DX010 (ip), vehicle: saline): 90 % of control

COS(C)(=O)=O
T/C [10]: 100 % of control and 105 % of control | T/C [1]: 100 % of control | T/C [22]: 88 % of control and 116 % of control | T/C [2]: 100 % of control and 111 % of control

CCn1cnc2c(=S)nc[nH]c21
T/C [12]: 100 % of control | T/C [13]: 88 % of control | T/C [4]: 88 % of control | T/C [5]: 105 % of control

CC[C@@H](c1ccc(O)cc1)[C@@H](CC)c1ccc(O)cc1
T/C (dose: 25.0 mg/kg/injection, schedule: Q01DX010 (ip), vehicle: water): 100 % of control | T/C (dose: 50.0 mg/kg/injection, schedule: Q01DX010 (ip), vehicle: water): 87 % of control | T/C (dose: 100.0 mg/kg/injection, schedule: Q01DX010 (ip), vehicle: water): 87 % of control | T/C (dose: 200.0 mg/kg/injection, schedule: Q01DX010 (ip), vehicle: water): 87 % of control

CN1CC[C@]23c4c5ccc(O)c4O[C@H]2C(=O)CC[C@H]3[C@H]1C5
T/C [15]: 94 % of control | T/C [16]: 105 % of control | T/C [23]: 94 % of control | T/C [24]: 88 % of control and 94 % of control | T/C [25]: 88 % of control

N=[N+]=CC(=O)OCC(N)C(=O)O (stereo not given)
T/C [8]: 122 % of control | T/C [10]: 113 % of control | T/C [1]: 100 % of control and 86 % of control

Cn1c(N)nc2nc[nH]c2c1=S
T/C (dose: 5.0 mg/kg/injection, schedule: Q01DX010 (ip), vehicle: saline): 100 % of control | T/C [17]: 100 % of control and 122 % of control | T/C [18]: 88 % of control and 105 % of control | T/C [19]: 88 % of control and 100 % of control | T/C (dose: 80.0 mg/kg/injection, schedule: Q01DX010 (ip), vehicle: saline): 111 % of control

Clc1ncnc2nc[nH]c12
T/C (dose: 7.5 mg/kg/injection, schedule: Q01DX010 (ip), vehicle: saline): 100 % of control and 87 % of control | T/C [20]: 100 % of control and 114 % of control | T/C [21]: 100 % of control and 87 % of control | T/C [3]: 87 % of control and 100 % of control

CCN(CC)C(=S)S
T/C [5]: 87 % of control | T/C [6]: 87 % of control | T/C [7]: 87 % of control | T/C [14]: 93 % of control
